Laboratory results: ChEMBL document CHEMBL3217622, “Design of 7-amino-6-chloro-3H-imidazo[4,5-b]pyridine scaffold from 5-chloro-2,4-diaminopyrimidine pharmacophore: identification of potent inhibitors of anaplastic lymphoma kinase” (Medchemcomm, 2012)

Key:
Rattus norvegicus [1] = test: Half life in rat at 1 mg/kg, iv; type: ADME, organism-based; design: dose 1 mg/kg, route intravenous; conditions: in vivo
Rattus norvegicus [2] = test: Volume of distribution in rat at 1 mg/kg, iv; type: ADME, organism-based; design: dose 1 mg/kg, route intravenous; conditions: in vivo
[3] = AUC (0 to infinity) in rat at 1 mg/kg, iv; type: ADME, organism-based; design: dose 1 mg/kg, route intravenous, time infinity; conditions: plasma
Rattus norvegicus [4] = test: (§1) Cmax in rat at 5 mg/kg, po; type: ADME, organism-based; design: dose 5 mg/kg, route oral; conditions: in vivo, BLD = below limit of detection
Rattus norvegicus [5] = test: (§2) AUC (0 to infinity) in rat at 5 mg/kg, po; type: ADME, organism-based, Plasma; design: dose 5 mg/kg, route oral, time infinity; conditions: in vivo, BLD = below limit of detection
[6] = Oral bioavailability in rat at 5 mg/kg; type: ADME, organism-based; conditions: in vivo
Insulin receptor = Insulin receptor (Homo sapiens, UniProt P06213); test: Inhibition of insulin receptor kinase (unknown origin)
Insulin receptor, sequence (P06213 28-758 limits assumed): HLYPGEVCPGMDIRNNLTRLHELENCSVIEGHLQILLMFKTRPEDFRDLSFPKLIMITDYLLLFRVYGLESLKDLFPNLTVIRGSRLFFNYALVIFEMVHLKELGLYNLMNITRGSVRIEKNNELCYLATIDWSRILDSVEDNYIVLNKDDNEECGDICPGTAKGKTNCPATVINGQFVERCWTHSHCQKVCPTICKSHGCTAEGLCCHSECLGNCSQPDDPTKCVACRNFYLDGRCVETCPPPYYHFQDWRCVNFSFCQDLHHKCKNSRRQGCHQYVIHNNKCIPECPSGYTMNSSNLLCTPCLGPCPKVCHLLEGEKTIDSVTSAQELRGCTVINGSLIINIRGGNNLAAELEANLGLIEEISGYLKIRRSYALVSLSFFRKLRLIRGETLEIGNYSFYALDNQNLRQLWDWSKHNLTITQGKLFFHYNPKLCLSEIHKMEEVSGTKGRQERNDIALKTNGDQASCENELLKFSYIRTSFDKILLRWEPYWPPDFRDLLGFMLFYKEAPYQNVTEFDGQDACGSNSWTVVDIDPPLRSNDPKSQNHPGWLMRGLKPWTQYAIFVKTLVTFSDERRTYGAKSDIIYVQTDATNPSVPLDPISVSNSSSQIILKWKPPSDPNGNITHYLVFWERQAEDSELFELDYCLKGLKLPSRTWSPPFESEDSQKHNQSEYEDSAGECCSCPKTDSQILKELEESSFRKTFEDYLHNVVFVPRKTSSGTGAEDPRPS
Insulin receptor, sequence (P06213 763-1382 limits assumed): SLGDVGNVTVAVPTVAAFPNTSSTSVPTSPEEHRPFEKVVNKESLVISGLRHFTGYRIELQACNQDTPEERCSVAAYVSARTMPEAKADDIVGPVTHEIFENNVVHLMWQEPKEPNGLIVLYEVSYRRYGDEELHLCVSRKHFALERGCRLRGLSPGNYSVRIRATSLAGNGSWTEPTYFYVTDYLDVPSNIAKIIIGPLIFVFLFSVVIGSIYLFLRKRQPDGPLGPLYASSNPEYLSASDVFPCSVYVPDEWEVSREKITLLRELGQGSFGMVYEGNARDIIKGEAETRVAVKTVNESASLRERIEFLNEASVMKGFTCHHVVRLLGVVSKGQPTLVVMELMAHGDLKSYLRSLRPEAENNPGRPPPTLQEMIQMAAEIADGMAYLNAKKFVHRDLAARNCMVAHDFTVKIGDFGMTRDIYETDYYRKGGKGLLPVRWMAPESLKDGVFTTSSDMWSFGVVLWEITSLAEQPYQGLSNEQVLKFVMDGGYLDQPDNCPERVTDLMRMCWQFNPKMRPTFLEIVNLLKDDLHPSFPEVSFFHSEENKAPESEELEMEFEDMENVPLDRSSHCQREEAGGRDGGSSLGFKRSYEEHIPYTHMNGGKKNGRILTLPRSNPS

[7] = target: ALK tyrosine kinase receptor (Homo sapiens, UniProt Q9UM73); test: Inhibition of ALK (unknown origin)
ALK tyrosine kinase receptor, sequence (Q9UM73 whole entry): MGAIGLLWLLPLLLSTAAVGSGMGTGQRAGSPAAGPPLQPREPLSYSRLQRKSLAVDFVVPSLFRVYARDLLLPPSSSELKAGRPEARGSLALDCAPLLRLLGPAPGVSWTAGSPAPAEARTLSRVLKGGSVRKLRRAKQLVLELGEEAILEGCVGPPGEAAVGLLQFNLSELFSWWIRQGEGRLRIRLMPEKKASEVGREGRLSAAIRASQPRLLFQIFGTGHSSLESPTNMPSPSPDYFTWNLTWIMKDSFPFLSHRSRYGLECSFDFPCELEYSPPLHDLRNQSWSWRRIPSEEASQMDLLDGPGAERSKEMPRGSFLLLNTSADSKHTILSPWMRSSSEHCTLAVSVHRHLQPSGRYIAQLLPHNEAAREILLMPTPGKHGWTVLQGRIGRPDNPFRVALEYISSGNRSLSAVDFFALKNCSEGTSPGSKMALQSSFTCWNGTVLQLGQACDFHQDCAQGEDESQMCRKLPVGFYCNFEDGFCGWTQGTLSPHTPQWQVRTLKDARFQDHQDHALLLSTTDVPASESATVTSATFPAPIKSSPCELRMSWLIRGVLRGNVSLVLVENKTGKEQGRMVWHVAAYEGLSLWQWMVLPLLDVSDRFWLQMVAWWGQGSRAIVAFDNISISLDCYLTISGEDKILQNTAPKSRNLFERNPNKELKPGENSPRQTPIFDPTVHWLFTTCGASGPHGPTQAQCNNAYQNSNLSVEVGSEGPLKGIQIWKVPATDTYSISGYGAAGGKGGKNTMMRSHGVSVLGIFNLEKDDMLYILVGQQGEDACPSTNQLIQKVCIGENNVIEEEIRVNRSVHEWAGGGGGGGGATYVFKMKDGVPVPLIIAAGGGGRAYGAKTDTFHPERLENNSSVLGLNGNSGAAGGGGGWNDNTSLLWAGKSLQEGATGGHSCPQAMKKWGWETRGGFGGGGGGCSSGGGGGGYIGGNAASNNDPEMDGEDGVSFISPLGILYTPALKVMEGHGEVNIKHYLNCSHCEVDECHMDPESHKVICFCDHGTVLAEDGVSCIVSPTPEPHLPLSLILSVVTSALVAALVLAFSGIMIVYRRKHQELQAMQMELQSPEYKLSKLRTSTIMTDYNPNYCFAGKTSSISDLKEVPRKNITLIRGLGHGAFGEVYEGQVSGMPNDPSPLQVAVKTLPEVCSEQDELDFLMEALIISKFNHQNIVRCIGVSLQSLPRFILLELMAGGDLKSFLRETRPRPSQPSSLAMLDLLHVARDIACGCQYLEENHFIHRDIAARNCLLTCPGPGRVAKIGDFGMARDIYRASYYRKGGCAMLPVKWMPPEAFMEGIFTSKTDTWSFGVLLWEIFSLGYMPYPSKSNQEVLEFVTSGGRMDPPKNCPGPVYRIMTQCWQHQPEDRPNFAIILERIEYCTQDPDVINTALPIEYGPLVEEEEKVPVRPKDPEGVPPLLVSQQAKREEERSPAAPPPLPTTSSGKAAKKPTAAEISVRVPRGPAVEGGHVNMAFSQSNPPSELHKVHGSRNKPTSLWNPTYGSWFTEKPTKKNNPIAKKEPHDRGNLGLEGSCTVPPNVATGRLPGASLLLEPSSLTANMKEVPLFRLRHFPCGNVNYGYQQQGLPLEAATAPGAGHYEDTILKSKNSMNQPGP

Cytochrome P450 3A4 [8] = target: T1, Cytochrome P450 3A4 (Homo sapiens, UniProt P08684); test: Inhibition of CYP3A4 in human pooled liver microsomes using testosterone as substrate by LC/MS/MS analysis
T1 sequence (P08684 whole entry): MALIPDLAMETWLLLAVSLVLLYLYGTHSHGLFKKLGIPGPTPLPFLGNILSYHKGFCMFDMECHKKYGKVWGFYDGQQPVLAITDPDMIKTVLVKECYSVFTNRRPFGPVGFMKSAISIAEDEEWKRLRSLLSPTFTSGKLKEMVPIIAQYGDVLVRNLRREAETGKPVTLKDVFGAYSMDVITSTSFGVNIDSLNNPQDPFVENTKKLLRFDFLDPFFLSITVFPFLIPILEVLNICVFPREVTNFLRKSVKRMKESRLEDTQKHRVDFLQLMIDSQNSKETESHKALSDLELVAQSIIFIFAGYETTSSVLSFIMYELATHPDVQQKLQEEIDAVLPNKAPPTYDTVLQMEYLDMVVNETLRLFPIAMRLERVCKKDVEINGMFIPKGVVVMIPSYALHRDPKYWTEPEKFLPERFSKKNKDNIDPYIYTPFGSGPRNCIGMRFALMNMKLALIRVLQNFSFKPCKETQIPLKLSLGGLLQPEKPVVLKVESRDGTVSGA

Cytochrome P450 3A4 [9] = target: T1, Cytochrome P450 3A4; test: Inhibition of CYP3A4 in human pooled liver microsomes using midazolam as substrate by LC/MS/MS analysis
[10] = as §1; type: ADME, organism-based; design: dose 5 mg/kg, route oral; conditions: in vivo
[11] = as §2; type: ADME, organism-based, Plasma; design: dose 5 mg/kg, route oral, time infinity; conditions: plasma
[12] = Apparent permeability of the compound from apical to basolateral side in human Caco2 cells by absorption system analysis; conditions: Caco-2
Cytochrome P450 1A2 = target: T2, Cytochrome P450 1A2 (Homo sapiens, UniProt P05177); test: Inhibition of CYP1A2 in human pooled liver microsomes using phenacetin as substrate by LC/MS/MS analysis
T2 sequence (P05177 whole entry): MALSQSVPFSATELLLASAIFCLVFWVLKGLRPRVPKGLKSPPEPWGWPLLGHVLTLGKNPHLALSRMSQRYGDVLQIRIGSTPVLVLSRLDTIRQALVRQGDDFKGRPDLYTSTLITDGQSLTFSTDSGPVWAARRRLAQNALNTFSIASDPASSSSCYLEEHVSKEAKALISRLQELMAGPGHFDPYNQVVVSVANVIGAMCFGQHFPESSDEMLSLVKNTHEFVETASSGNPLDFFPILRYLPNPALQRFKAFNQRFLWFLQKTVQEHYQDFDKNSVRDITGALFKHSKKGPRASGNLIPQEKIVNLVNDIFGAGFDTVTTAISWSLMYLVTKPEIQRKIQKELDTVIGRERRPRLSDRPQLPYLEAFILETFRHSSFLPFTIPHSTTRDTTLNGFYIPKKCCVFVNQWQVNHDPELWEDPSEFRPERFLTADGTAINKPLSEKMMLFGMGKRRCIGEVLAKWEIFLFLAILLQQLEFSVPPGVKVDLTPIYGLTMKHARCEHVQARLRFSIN

Cytochrome P450 2C9 = Cytochrome P450 2C9 (Homo sapiens, UniProt P11712); test: Inhibition of CYP2C9 in human pooled liver microsomes using diclofenac as substrate by LC/MS/MS analysis
Cytochrome P450 2C9, sequence (P11712 whole entry): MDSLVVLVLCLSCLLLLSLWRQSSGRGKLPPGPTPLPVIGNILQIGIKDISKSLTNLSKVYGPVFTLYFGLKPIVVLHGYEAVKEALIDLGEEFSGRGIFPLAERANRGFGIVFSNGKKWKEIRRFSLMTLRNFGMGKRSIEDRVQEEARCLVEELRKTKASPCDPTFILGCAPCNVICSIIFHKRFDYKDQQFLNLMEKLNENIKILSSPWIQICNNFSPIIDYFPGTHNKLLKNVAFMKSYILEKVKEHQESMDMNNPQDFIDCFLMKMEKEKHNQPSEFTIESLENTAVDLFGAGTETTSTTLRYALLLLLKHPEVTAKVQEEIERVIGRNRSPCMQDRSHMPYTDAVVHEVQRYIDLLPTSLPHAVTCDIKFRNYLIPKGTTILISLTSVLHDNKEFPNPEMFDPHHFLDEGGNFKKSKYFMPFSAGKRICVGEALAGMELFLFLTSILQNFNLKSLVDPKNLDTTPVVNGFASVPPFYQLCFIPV

Cytochrome P450 2C19 = Cytochrome P450 2C19 (Homo sapiens, UniProt P33261); test: Inhibition of CYP2C19 in human pooled liver microsomes using S-mephenytoin as substrate by LC/MS/MS analysis
Cytochrome P450 2C19, sequence (P33261 whole entry): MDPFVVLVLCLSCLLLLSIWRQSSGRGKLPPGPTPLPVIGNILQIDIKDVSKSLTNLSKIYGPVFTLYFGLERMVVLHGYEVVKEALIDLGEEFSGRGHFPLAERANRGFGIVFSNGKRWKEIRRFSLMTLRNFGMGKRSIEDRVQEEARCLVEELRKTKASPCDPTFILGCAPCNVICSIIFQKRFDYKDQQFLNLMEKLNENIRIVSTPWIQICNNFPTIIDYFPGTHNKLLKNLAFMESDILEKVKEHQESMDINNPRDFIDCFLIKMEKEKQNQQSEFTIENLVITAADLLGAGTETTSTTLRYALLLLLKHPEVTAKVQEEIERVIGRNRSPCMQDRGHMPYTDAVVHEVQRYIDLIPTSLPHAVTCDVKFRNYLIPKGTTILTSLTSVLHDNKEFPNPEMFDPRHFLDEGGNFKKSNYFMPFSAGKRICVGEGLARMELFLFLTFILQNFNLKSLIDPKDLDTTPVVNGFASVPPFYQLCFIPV

Cytochrome P450 2D6 = Cytochrome P450 2D6 (Homo sapiens, UniProt P10635); test: Inhibition of CYP2D6 in human pooled liver microsomes using dextromethorphan as substrate by LC/MS/MS analysis
Cytochrome P450 2D6, sequence (P10635 whole entry): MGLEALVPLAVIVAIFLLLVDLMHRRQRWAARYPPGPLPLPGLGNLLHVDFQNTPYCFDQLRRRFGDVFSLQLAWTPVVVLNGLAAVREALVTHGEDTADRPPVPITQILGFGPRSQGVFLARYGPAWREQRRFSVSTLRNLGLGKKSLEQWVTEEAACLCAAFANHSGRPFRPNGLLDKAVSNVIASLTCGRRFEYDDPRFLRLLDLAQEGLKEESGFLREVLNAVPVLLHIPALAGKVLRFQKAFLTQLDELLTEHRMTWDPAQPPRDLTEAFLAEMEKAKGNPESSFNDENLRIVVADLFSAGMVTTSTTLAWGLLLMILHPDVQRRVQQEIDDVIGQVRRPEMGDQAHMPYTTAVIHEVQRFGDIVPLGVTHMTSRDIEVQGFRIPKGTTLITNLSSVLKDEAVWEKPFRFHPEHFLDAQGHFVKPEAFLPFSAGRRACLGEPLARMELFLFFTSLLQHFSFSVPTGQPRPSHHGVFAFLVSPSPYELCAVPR

[13] = target: Voltage-gated inwardly rectifying potassium channel KCNH2 (Homo sapiens, UniProt Q12809); test: Inhibition of human ERG by automated patch-clamp assay
Liver microsome [14] = test: Bioactivation in human liver microsomes in presence of NADPH
Liver microsome [15] = test: Metabolic stability in human liver microsomes assessed as GSH conjugation by LC/MS analysis; type: ADME

t1/2 (Rattus norvegicus [1]) [h] | Vd (Rattus norvegicus [2]) [L/kg] | AUC(0-inf) [3] [ng·h/mL] | bioavailability [6] [%] | IC50 (Cytochrome P450 3A4 [8]) [µM] | IC50 (Cytochrome P450 3A4 [9]) [µM] | Cmax [10] [ng/mL] | AUC(0-inf) [11] [ng·h/mL] | IC50 (Cytochrome P450 1A2) [µM] | IC50 (Cytochrome P450 2C9) [µM] | IC50 (Cytochrome P450 2C19) [µM] | IC50 (Cytochrome P450 2D6) [µM] | SMILES | further results
1.1 | 1.6 | 1140 | 0 |  |  |  |  |  |  |  |  | COc1cc(CN2CCN(C)CC2)ccc1-c1nc2c(N[C@H]3[C@@H](C(N)=O)[C@@H]4C=C[C@H]3C4)c(Cl)cnc2[nH]1 | Cmax (Rattus norvegicus [4]): BLD; AUC (Rattus norvegicus [5]): BLD
 |  |  |  |  |  |  |  |  |  |  |  | COc1cccc(-c2nc3c(N[C@H]4[C@@H](C(N)=O)[C@@H]5C=C[C@H]4C5)c(Cl)cnc3[nH]2)c1 | IC50 (Insulin receptor): > 3 µM
 |  |  |  |  |  |  |  |  |  |  |  | CN1CCN(c2ccc(-c3nc4c(N[C@H]5[C@@H](C(N)=O)[C@@H]6C=C[C@H]5C6)ccnc4[nH]3)cc2)CC1 | IC50 [7]: > 3 µM
1.6 | 5.6 | 451 | 76 | > 30 | > 30 | 317 | 1730 | > 30 | > 30 | > 30 | > 30 | COc1cc(CN2CCOCC2)ccc1-c1nc2c(N[C@H]3[C@@H](C(N)=O)[C@@H]4C=C[C@H]3C4)c(Cl)cnc2[nH]1 | Papp A→B [12]: 10.8 ×10⁻⁶ cm/s
2.5 | 3 | 1430 | 0 | > 30 | > 30 |  |  | > 30 | > 30 | > 30 | > 30 | COc1cc(N2CCC(N3CCN(C)CC3)CC2)ccc1-c1nc2c(N[C@H]3[C@@H](C(N)=O)[C@@H]4C=C[C@H]3C4)c(Cl)cnc2[nH]1 | Cmax (Rattus norvegicus [4]): BLD; AUC (Rattus norvegicus [5]): BLD
1.4 | 5.3 | 416 | 7 | 8.5 | 13.7 | 26 | 148 | > 30 | > 30 | > 30 | > 30 | COc1cc(N2CCN(C)CC2)ccc1-c1nc2c(N[C@H]3[C@@H](C(N)=O)[C@@H]4C=C[C@H]3C4)c(Cl)cnc2[nH]1 | Papp A→B [12]: 5 ×10⁻⁶ cm/s; IC50 [13]: > 10 µM
1.4 | 0.8 | 2480 | 21 |  |  | 429 | 2580 |  |  |  |  | COc1cc(N2CCOCC2)ccc1-c1nc2c(N[C@H]3[C@@H](C(N)=O)[C@@H]4C=C[C@H]3C4)c(Cl)cnc2[nH]1 | Stability (Liver microsome [14]): Stable; Stability (Liver microsome [15]): Stable
 |  |  |  |  |  |  |  |  |  |  |  | NC(=O)[C@@H]1[C@H](Nc2ccnc3[nH]c(-c4ccc(N5CCOCC5)cc4)nc23)[C@H]2C=C[C@@H]1C2 | IC50 [7]: > 10 µM
1.9 | 1.8 | 1750 | 8 |  |  | 158 | 740 |  |  |  |  | COc1cc(N2CCC(N3CCOCC3)CC2)ccc1-c1nc2c(N[C@H]3[C@@H](C(N)=O)[C@@H]4C=C[C@H]3C4)c(Cl)cnc2[nH]1 | 
